Measurements published in patent US6451828B1, “Selective inhibition of glutaminase by bis-thiadiazoles” (priority 2000, dated 2002).

Legend:
thrombin = thrombin (Homo sapiens, UniProt P00734); assay: Specificity: effect on mechanistically related enzyme; assay type: biochemical; details: at 30 μM (data not shown)
Description: (§1) Specificity for glutaminase was evaluated at two levels. Compounds were evaluated for specific interactions with several thiol hydrolases (cathepsin B, caspase-9, calpain-1, and […]). These are cysteine proteases which are believed to function by a mechanisms similar to that of glutaminase. Compounds were also evaluated for effects on intracellular amino acids and nucleotides in CACO2 (intestinal epithelial) cells (Example 5), and for effects on amino acids in primary cultures of cerebellar neurons (granule cells) and astrocytes (Examples 6-7). These measurements reflect interactions with other glutamine utilizing enzymes involved in amino acid and nucleic acid biosynthesis and homeostasis. For example, a decrease in cytidine triphosphate (CTP) and an increase in uridine triphosphate (UTP) on treatment with DON (6-diazo-5-oxo-L-norleucine), a known nonselective antiglutamine affinity label, is indicative of inhibition of the activity of CTP synthetase, for which UTP is the substrate and CTP the product.

cathespin B = cathespin B (Homo sapiens, UniProt P07858); assay: as above; assay type: biochemical; details: at 30 μM (data not shown)
Description: as §1

caspase 9 = biological target: T1, caspase 9 (Homo sapiens, UniProt P55211); assay: as above; assay type: biochemical; details: at 30 μM (data not shown)
T1 sequence (P55211 1-416): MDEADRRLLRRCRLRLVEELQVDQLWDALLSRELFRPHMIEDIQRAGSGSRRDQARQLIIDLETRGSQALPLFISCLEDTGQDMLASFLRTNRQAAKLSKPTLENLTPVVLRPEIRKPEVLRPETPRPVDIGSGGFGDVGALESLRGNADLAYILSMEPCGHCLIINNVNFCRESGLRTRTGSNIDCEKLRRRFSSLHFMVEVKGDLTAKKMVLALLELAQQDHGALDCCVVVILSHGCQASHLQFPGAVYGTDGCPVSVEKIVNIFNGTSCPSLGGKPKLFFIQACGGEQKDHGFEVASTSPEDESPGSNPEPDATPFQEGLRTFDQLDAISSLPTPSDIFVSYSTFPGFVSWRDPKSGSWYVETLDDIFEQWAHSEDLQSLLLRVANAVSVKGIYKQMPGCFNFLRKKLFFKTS
Description: as §1

calpain 1 = biological target: T2, calpain 1 (Homo sapiens, UniProt P07384); assay: as above; assay type: biochemical; details: at 30 μM (data not shown)
T2 sequence (P07384 1-714): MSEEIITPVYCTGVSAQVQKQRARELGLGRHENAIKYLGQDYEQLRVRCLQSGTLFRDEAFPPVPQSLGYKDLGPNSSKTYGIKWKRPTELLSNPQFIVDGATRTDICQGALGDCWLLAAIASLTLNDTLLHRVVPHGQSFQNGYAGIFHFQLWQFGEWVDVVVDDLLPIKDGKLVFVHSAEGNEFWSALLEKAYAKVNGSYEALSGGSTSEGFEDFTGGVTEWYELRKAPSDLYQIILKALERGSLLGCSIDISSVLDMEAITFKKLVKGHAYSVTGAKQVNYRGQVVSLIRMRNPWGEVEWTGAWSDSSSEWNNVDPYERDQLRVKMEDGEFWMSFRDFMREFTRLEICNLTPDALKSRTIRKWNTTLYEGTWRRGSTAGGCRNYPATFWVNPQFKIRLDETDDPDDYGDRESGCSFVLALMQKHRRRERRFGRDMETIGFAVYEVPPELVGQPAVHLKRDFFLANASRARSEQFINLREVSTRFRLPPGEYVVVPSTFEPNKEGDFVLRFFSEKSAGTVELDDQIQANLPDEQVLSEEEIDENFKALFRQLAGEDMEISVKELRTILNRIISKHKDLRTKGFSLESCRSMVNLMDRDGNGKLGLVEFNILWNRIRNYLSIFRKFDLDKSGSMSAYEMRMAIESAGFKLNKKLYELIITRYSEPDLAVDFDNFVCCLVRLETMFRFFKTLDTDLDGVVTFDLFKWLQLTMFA
T2 sequence (P04632 1-268 partner): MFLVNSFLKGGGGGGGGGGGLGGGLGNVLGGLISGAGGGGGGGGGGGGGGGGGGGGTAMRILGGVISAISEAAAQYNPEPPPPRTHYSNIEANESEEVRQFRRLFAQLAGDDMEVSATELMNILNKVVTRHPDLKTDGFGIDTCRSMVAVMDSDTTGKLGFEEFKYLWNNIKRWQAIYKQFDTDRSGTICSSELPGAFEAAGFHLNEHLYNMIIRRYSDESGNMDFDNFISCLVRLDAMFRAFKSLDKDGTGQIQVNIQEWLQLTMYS
Description: as §1

[1] = tested on: intestinal epithelial (CACO2) cells; assay: Intracellular nucleotides in intestinal epithelial cells; assay type: cell-based; details: at 10 μM, FIG. 5B
Description: The remaining volume of the extracts was used for chromatographic determination of nucleic acids, as described in Di Pierro et al. This assay reflects the activity of a variety of glutamine amidotransferases, including CTP synthetase, which are mechanistically and functionally related to glutaminase.
CTP synthetase is a glutamine amidotransferase which synthesizes CTP by adding the amide nitrogen of glutamine to UTP.
Intestinal epithelial (CACO2) cells were grown in 12 well plates with Eagles minimal essential medium containing 2 mM glutamine, as recommended (American Tissue Culture Collection). When the cells reached about 80% confluency, fresh glutamine was added to 2 mM. […] After 6.5 h of incubation, cultures were washed twice with phosphate buffered saline and extracted with 100 μL 1M perchloric acid. Extracts were neutralized with 30 μL of 5M potassium carbonate, centrifuged, and analyzed by HPLC for nucleotides, as described in Di Pierro et al. 1995, and for amino acids, as described in Lo et al. 1998. Results are shown in FIG. 5A (amino acids) and FIG. 5B (nucleotides).

cerebellar granule cells = assay: Intracellular amino acids in primary cultures of cerebellar granule cells; assay type: cell-based
Description: (§2) After 5 h incubation, the cultures were washed twice with phosphate buffered saline, extracted with perchloric acid and analyzed for amino acids as described for FIG. 5A. To produce dose response curves for lowering of intracellular Glu and Asp (FIG. 6A-B), the procedure was repeated with 4 days (for cerebellar granule cells) and 12 days of incubation (for astrocytes). […] Results are shown in FIGS. 6A-B. Data are expressed as the ratio of Glu, Asp, or GABA to Ala (neurons and astrocytes) or Ser (astrocytes).

astrocytes = assay: Intracellular amino acids in primary cultures of astrocytes; assay type: cell-based
Description: as §2, with “To” for “After 5 h incubation, the cultures were washed twice with phosphate buffered saline, extracted with perchloric acid and analyzed for amino acids as described for FIG. 5A. To”

Compound: O=C(Cc1ccccc1)Nc1nnc(CCSCCc2nnc(NC(=O)Cc3ccccc3)s2)s1 [SNX-1770, bis-2′-[5-(phenylacetamido)-1,3,4-thiadiazol-2-yl]ethyl sulfide]
- Effect on thrombin (thrombin): Nor did it have any effect
- Effect on cathespin B (cathespin B): Nor did it have any effect
- Effect on caspase 9 (caspase 9): Nor did it have any effect
- Effect on calpain 1 (calpain 1): Nor did it have any effect
- Effect on intracellular nucleotides [1]: no effect
- Effect on intracellular (non-glutamate) amino acids, including serine, glycine, arginine, alanine, taurine (cerebellar granule cells; at 10 μM, cultured cerebellar neurons): no effect
- Lowering of cellular glutamate (cerebellar granule cells; granule cell neurons, partial and specific): ~30%
- Effect on cellular GABA (cerebellar granule cells; granule cells, levels up to 10 μM, FIG. 6C): no effect
- IC50 (cerebellar granule cells; primary cultures of cerebellar granule cells, read-out: IC50, lowering of cellular glutamate): 50 to 100 nM
- IC50 (astrocytes; Astrocyte, primary cultures of astrocytes, read-out: IC50, lowering of cellular glutamate): 100 to 300 nM
- Lowering of cellular glutamate (astrocytes; astrocytes, partial and specific): ~30%
- Effect on intracellular (non-glutamate) amino acids, including serine, glycine, arginine, alanine, taurine (astrocytes; at 10 μM, astrocytes): no effect
